Measurements reported in patent US20130344008A1, “NONCARIOUS MATERIAL AND ANTICARIOUS AGENT CONTAINING RARE SUGAR” (priority 2006, published 2013).

How the values were obtained:
Assay type in all cases: cell-based, Streptococcus mutans
[1] = system: S. mutans strain (JCM5075); experiment: Example 3: pH of S. mutans culture in BHI broth with test substance after 48-hour culturing; details: 10% test substance; for pH: BHI broth, after 48-hour culturing
Method: Allitol and D-sorbose were used to assay the actions thereof against S. mutans. Allitol and D-sorbose were supplied from the Rare Sugar Research Center, the National University Corporation Kagawa University. The S. mutans strain (JCM5075) was plated in a Brain Heart Infusion broth containing a 10% test substance, to measure the pH of the liquid culture after 48-hour culturing. As a control, 1% sucrose and 10% Xylitol were used.

S. mutans strain JCM5075 = experiment: Example 1: optical density and pH of S. mutans JCM5075 cultures in BHI broth with rare sugars, with or without sucrose; details: for pH 0 hour later / pH 6 hours later / pH 8 hours later / pH 12 hours later / pH 24 hours later / Optical density (OD) 12 hours later / suppression of OD increase compared with no addition: BHI broth; for Optical density (OD) 12 hours later: OD600; for suppression of the pH reduction: also with 1% sucrose addition; for suppression of the pH reduction / pH change 24 hours later (in words): FIG. 3; for suppression of OD increase compared with no addition: FIG. 2 / Table 1; for pH change 24 hours later (in words): 1% sucrose, or 10% Xylitol+1% sucrose, or 10% fructose+1% sucrose
Excerpt: S. mutans strains characteristically form insoluble glucan on addition of sucrose, to generate acids and reduce the pH of the culture medium, which is considered to cause decalcification of teeth on dental surface to form decayed teeth (the reason why the strains are designated bacteria causing decayed teeth). JCM 5075 of S. mutans strains and the Brain Heart Infusion (BHI) broth were used to assay the optical density (the increase of the number of the bacterial cells) and the pH change in individual rare sugar solutions with or without sucrose added. As the rare sugars, there were used D-fructose, L-fructose, D-sorbose, L-sorbose, D-psicose, L-psicose, D-tagatose and L-tagatose. The rare sugars used were supplied from the Rare Sugar Research Center, the National University Corporation Kagawa University.
The strain JCM5075 thawed from −80° C. stock was cultured for 48 hours, and was adjusted to OD 0.3. 100 μl of the resulting culture was added to each 2-ml portion of the BHI broths under individual conditions, to assay the optical density and the pH 24 hours later (observation with naked eyes and absorbance: OD600).
After collecting a part of the liquid culture and centrifuging the culture, the pH of the resulting supernatant was measured with a pH meter. The results are shown in Table 2 (0, 6, 8, 12 and 24 hours after the addition of the bacteria to the BHI broth) and FIG. 3.

[2] = system: S. mutans strain MT 8148 (JCM5175); experiment: Example 2: bacterial growth (OD 660 nm) and pH of S. mutans culture in phenol red broth with 1% test substance; details: PRB broth, 37° C., 48 hours later; for OD: bacterial growth, absorbance at 660 nm
Method: D-Psicose and L-psicose were used to assay the actions thereof against S. mutans. D-Psicose and L-psicose were supplied from the Rare Sugar Research Center, the National University Corporation Kagawa University. The S. mutans strain MT 8148 (JCM5175) was plated in a Brain Heart Infusion broth supplemented with agar for culturing at 37° C. for 48 hours. The liquid culture was inoculated in a fresh Brain Heart Infusion broth, for culturing at 37° C. for 24 hours. The liquid culture was inoculated in a phenol red broth (PRB broth) containing a test substance at 1%, for culturing at 37° C.; the bacterial growth (absorbance at 660 nm: OD) and the pH were assayed 48 hours later. Asa control, glucose, fructose, sucrose and Xylitol were used. After culturing for a given period of time, additionally, the optical density of apart of the liquid culture was measured with an absorptiometer (OD 660 nm).

[3] = 10% test substance + 1% sucrose

| Structure (SMILES) | pH 0 hour later (S. mutans strain JCM5075; 5% test substance + 1% sucrose) | pH 6 hours later (S. mutans strain JCM5075; 5% test substance + 1% sucrose) | pH 8 hours later (S. mutans strain JCM5075; 5% test substance + 1% sucrose) | pH 12 hours later (S. mutans strain JCM5075; 5% test substance + 1% sucrose) | pH 24 hours later (S. mutans strain JCM5075; 5% test substance + 1% sucrose) | pH 0 hour later (S. mutans strain JCM5075; 5% test substance, no sucrose) | pH 6 hours later (S. mutans strain JCM5075; 5% test substance, no sucrose) | pH 8 hours later (S. mutans strain JCM5075; 5% test substance, no sucrose) | pH 12 hours later (S. mutans strain JCM5075; 5% test substance, no sucrose) | pH 24 hours later (S. mutans strain JCM5075; 5% test substance, no sucrose) | pH 0 hour later (S. mutans strain JCM5075; [3]) | pH 6 hours later (S. mutans strain JCM5075; [3]) | pH 8 hours later (S. mutans strain JCM5075; [3]) | pH 12 hours later (S. mutans strain JCM5075; [3]) | pH 24 hours later (S. mutans strain JCM5075; [3]) | Optical density (OD) 12 hours later (S. mutans strain JCM5075; 10% test substance) | pH 0 hour later (S. mutans strain JCM5075; 10% test substance, no sucrose) | pH 6 hours later (S. mutans strain JCM5075; 10% test substance, no sucrose) | pH 8 hours later (S. mutans strain JCM5075; 10% test substance, no sucrose) | pH 12 hours later (S. mutans strain JCM5075; 10% test substance, no sucrose) | further results |
| --- | --- | --- | --- | --- | --- | --- | --- | --- | --- | --- | --- | --- | --- | --- | --- | --- | --- | --- | --- | --- | --- |
| O=C(CO)[C@H](O)[C@@H](O)[C@H](O)CO [D-sorbose] | 7.3 | 7.2 | 7.2 | 7.2 | 5.0 | 7.4 | 7.2 | 7.2 | 7.2 | 5.5 | 7.3 | 7.2 | 7.2 | 7.2 | 6.9 | 0.102 | 7.3 | 7.2 | 7.2 | 7.2 | assimilability with the S. mutans strain ([1]; 48-hour culturing): low assimilability; pH [1]: 5.0; pH 24 hours later (S. mutans strain JCM5075; 10% test substance, no sucrose): 6.9; suppression of the pH reduction (S. mutans strain JCM5075; 24 hours later): pH reduction was suppressed; suppression of OD increase compared with no addition (S. mutans strain JCM5075): suppression of OD increase was observed |
| O=C[C@H](O)[C@@H](O)[C@H](O)[C@H](O)CO [D-Glucose, reference compound] |  |  |  |  |  |  |  |  |  |  |  |  |  |  |  |  |  |  |  |  | pH [2]: 3.9; OD [2]: 0.26 |
| O=C(CO)[C@H](O)[C@H](O)[C@@H](O)CO [L-tagatose] | 7.3 | 7.2 | 7.2 | 7.2 | 6.0 | 7.3 | 7.2 | 7.2 | 7.2 | 6.6 | 7.1 | 7.0 | 6.9 | 6.9 | 6.8 | 0.026 | 7.1 | 7.0 | 6.9 | 6.9 | pH 24 hours later (S. mutans strain JCM5075; 10% test substance, no sucrose): 6.8; suppression of the pH reduction (S. mutans strain JCM5075; 24 hours later): pH reduction was suppressed; suppression of OD increase compared with no addition (S. mutans strain JCM5075): suppression of OD increase was observed |
| OC[C@@H](O)[C@H](O)[C@@H](O)CO [Xylitol, reference compound] | 7.3 | 7.2 | 7.2 | 7.1 | 4.9 | 7.3 | 7.2 | 7.2 | 7.2 | 6.4 | 7.3 | 7.2 | 7.2 | 7.2 | 5.1 | 0.046 | 7.4 | 7.2 | 7.2 | 7.2 | pH [1]: 6.0; pH change 24 hours later (in words) (S. mutans strain JCM5075): highly inclined to acidity; pH 24 hours later (S. mutans strain JCM5075; 10% test substance, no sucrose): 6.5 |
| O=C(CO)[C@@H](O)[C@@H](O)[C@H](O)CO [D-tagatose] | 7.3 | 7.2 | 7.2 | 7.2 | 6.9 | 7.3 | 7.2 | 7.2 | 7.2 | 7.0 | 7.1 | 7.0 | 7.0 | 7.0 | 6.9 | 0.132 | 7.1 | 7.0 | 7.0 | 7.0 | pH 24 hours later (S. mutans strain JCM5075; 10% test substance, no sucrose): 6.9; suppression of the pH reduction (S. mutans strain JCM5075; 24 hours later): pH reduction was suppressed; suppression of OD increase compared with no addition (S. mutans strain JCM5075): suppression of OD increase was observed |
| O=C(CO)[C@@H](O)[C@H](O)[C@@H](O)CO [L-sorbose] | 7.4 | 7.2 | 7.2 | 7.2 | 5.3 | 7.4 | 7.2 | 7.2 | 7.2 | 5.9 | 7.3 | 7.2 | 7.2 | 7.2 | 6.4 | 0.463 | 7.3 | 7.2 | 7.2 | 7.2 | pH 24 hours later (S. mutans strain JCM5075; 10% test substance, no sucrose): 7.1 |
| O=C(CO)[C@H](O)[C@@H](O)[C@@H](O)CO [L-fructose] | 7.3 | 7.2 | 7.2 | 7.2 | 5.0 | 7.4 | 7.2 | 7.2 | 7.2 | 4.7 | 7.3 | 7.2 | 7.2 | 7.2 | 6.7 | 0.037 | 7.3 | 7.2 | 7.2 | 7.2 | pH [2]: 4.0; OD [2]: 0.20; pH 24 hours later (S. mutans strain JCM5075; 10% test substance, no sucrose): 6.5; suppression of the pH reduction (S. mutans strain JCM5075; 24 hours later): pH reduction was suppressed; suppression of OD increase compared with no addition (S. mutans strain JCM5075): suppression of OD increase was observed |
| O=C(CO)[C@@H](O)[C@H](O)[C@H](O)CO [D-fructose, reference compound] | 7.4 | 7.2 | 7.2 | 7.2 | 5.0 | 7.4 | 7.2 | 7.2 | 7.2 | 4.7 | 7.3 | 7.2 | 7.2 | 7.2 | 5.1 | 0.114 | 7.3 | 7.2 | 7.2 | 7.2 | pH change 24 hours later (in words) (S. mutans strain JCM5075): highly inclined to acidity; pH 24 hours later (S. mutans strain JCM5075; 10% test substance, no sucrose): 6.5; precipitation of bacterial masses (insoluble glucan) under observation with naked eyes (S. mutans strain JCM5075; addition of 1% sucrose, addition of 10% D-fructose, 24 hours later): caused the precipitation of bacterial masses (insoluble glucan) |
| O=C(CO)[C@@H](O)[C@@H](O)[C@@H](O)CO [L-psicose] | 7.3 | 7.2 | 7.2 | 7.2 | 6.2 | 7.3 | 7.2 | 7.2 | 7.2 | 6.8 | 7.2 | 7.1 | 7.0 | 7.0 | 6.9 | 0.067 | 7.2 | 7.1 | 7.0 | 7.0 | pH [2]: 5.9; OD [2]: 0.02; pH 24 hours later (S. mutans strain JCM5075; 10% test substance, no sucrose): 6.9; suppression of the pH reduction (S. mutans strain JCM5075; 24 hours later): pH reduction was suppressed; suppression of OD increase compared with no addition (S. mutans strain JCM5075): suppression of OD increase was observed |
| OC[C@@H](O)[C@@H](O)[C@@H](O)[C@@H](O)CO [Allitol] |  |  |  |  |  |  |  |  |  |  |  |  |  |  |  |  |  |  |  |  | pH [1]: 5.6; pH ([1]; listed as allitol): ≥ 5.5 |
